Several values for one entry are separate records, joined by “and”; a condition that tells them apart may be missing. Equal entries are not always repeated.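 Grown in 96-well plates, cells were treated for 48 hours with each compound at five concentrations. Insufficient inhibition: endpoint recorded as highest concentration tested. At the GI50, growth is halved. TGI: total growth inhibition.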
What was measured:
Test in all cases: NCI anticancer screen, dose series, 48 h
[1] = tested on: HCT-15 colon
[2] = tested on: OVCAR-4 ovarian
[3] = tested on: TK-10 renal
[4] = tested on: SK-MEL-28 melanoma
[5] = tested on: SF-295 CNS
[6] = tested on: UO-31 renal
[7] = tested on: SK-MEL-2 melanoma
[8] = tested on: SNB-19 CNS
[9] = tested on: 786-0 renal
[10] = tested on: LOX IMVI melanoma

Compound	GI50 [1] [µM]	TGI [1] [µM]	GI50 [2] [µM]	TGI [2] [µM]	GI50 [3] [µM]	TGI [3] [µM]	GI50 [4] [µM]	TGI [4] [µM]	GI50 [5]	TGI [5] [µM]	GI50 [6] [µM]	TGI [6] [µM]	GI50 [7] [µM]	TGI [7] [µM]	GI50 [8]	TGI [8] [µM]	GI50 [9] [µM]	TGI [9] [µM]	TGI [10] [µM]	GI50 [10]
Cc1nn(-c2nc3ccccc3[nH]2)c2c1C(c1ccc3c(c1)OCO3)CC(=O)N2 (stereo unspecified)	3.05	> 100	3.51	> 87.4	3.14	> 25.8	3.39	32.6	1810 nM	4.38	2.73	8.14	2.82	6.96	4.45 µM	> 100	3.65	21.9		
CC1(C)C2C/C(=C\c3ccccc3)C(=O)C1C2 (stereo unspecified)		> 100		> 100		> 100		> 100		> 100		> 100		> 100		> 100		> 100	> 100	
C/C(=C\CC[C@]1(C)OC(C)(C)OC1CC/C(C)=C/CO[Si](c1ccccc1)(c1ccccc1)C(C)(C)C)CC/C=C/CO[Si](C)(C)C(C)(C)C (stereo partly specified)		> 100		> 100		> 100		> 100		> 100		> 100		> 100		> 100		> 100	> 100	
O=C(N/N=C\c1ccc(N(CCCl)CCCl)cc1Cl)c1cccnc1	29	> 100	5.28	38.5	0.991	7.84	26.5	> 100	565 nM	9.97	14.6	52.9	14.3	53.3	45.1 µM	> 100	15.1	56.6	52.6	16.1 µM
CC12CC3CC(C1)CC(N=[N+]=[N-])(C3)C2				> 100		> 100		> 100		> 100		> 100		> 100		> 100		> 100	> 100	
CSC1C(=O)c2ccccc2/C(=N/Nc2nc3ccccc3s2)C1C (stereo unspecified)	7.58	15.8			15.6	42			19700 nM	> 50	6.02	13.8	7.34	18	19.9 µM	> 50	10.1	19.7	11.6	5.62 µM
S=C(Nc1ccccc1)N(Cc1ccccc1)c1ccccc1		> 100		93.6		80.3		78.4		> 100		> 100		41.2		> 100		> 100	> 100	
Cn1c(=O)c(C(=O)NC(=O)OCc2ccccc2)cn(CCSCCOC(=O)NCCCCCCNC(=O)OCCSCCn2cc(C(=O)NC(=O)OCc3ccccc3)c(=O)n(C)c2=O)c1=O		> 100		> 100		> 100		> 100				> 100		> 100		> 100		> 100	> 100	
C[CH2][Sn]([CH2]C)([O]C(=O)c1cccc(F)c1)[O][Sn]([CH2]C)([CH2]C)[O]C(=O)c1cccc(F)c1	21	43.3	22.8	46.7	19.6	33.8	16.7	30.5	18700 nM	36.9	49.8	> 100	16.4	30.3	20.2 µM	39.5	15.8	29.3	29.6	15.9 µM
COc1cc(/C=C2/C(=O)NC(Cc3cc(OC)c(OC)c(C)c3OC)C(=O)N2Cc2ccccc2)c(OC)c(C)c1OC (stereo unspecified)				> 100		> 100		> 100		> 100		> 100		66.8		> 100		> 100	> 100	
O=C(N/C(=C\c1ccc(Oc2ccc(Cl)c(Cl)c2)cc1)c1nc2ccccc2[nH]1)c1ccccc1		66.6		54.2		57.7		35.1		29		27.6		37.7		36.3		33		
N#C[S-].[Au+].c1ccc(CN2[CH-]N(Cc3ccccc3)C(c3ccccc3)=C2c2ccccc2)cc1			0.413	2.1	0.583	1.98							0.337	1.26			0.444	1.91		
CN(C)CCNC(=O)c1cc2c3ccccc3[nH]c2c2ncccc12	5.88	25	8.48	47.7	8.99	54.7	15.3	29.9			2.13	24.3	9.15	72.5	14.7 µM	93.2	15.2	53.5	17.5	4.14 µM
O=C(/C=C/c1ccc(C(F)(F)F)cc1)c1ccc(Nc2nc(NCCO)nc(N3CCOCC3)n2)cc1	1.89	4.82	3.05	10.2			3.25	11.5	2670 nM	7.6	1.31	2.58	8.66	21.5			1.65	3.1	3.11	1.67 µM
COC(=O)[C@@H](C)C[C@H](Cc1ccccc1)NC(=O)c1csc([C@@H](C[C@H](C(C)C)N(C)C(=O)C2(NC(=O)[C@H]3CCCCN3C)CC2)OC(C)=O)n1	0.424		0.00865						25.1 nM and 3.33 nM	> 33.3	1.3	> 33.3	0.00411		0.00824 µM and 0.00333 µM	> 33.3		> 33.3	> 33.3	0.00947 µM and 0.00333 µM
Cc1ccc(/C=C2\CCCC\C2=N\O)cc1		> 100		> 100		> 100		> 100		> 100		84				> 100		> 100	> 100	
COC(=O)c1cc2oc(/C=C3\SC(=S)N(NC(C)=O)C3=O)cc2n1Cc1ccccc1	1.54	8.56			6.14	15.5	9.06	38.5	2110 nM	15.6	8.88	> 50	18.5	> 50	6.8 µM	21.2	8.2	18.6	1.6	0.769 µM
COc1cc2cccc(NC(=O)c3cc(OC)c(OC)c(OC)c3Br)c2cc1OC				34.3		92.6		41.8		40.9		24.2		49		> 100		> 100		
O=C1c2c(nc3ccccc3c2-c2ccccc2)CN1Nc1ccccc1				> 100		> 100						> 100		> 100				> 100	> 100	

Compound	GI50 [1] [µM]	TGI [1] [µM]	GI50 [2] [µM]	TGI [2] [µM]	GI50 [3] [µM]	TGI [3] [µM]	GI50 [4] [µM]	TGI [4] [µM]	GI50 [5]	TGI [5] [µM]	GI50 [6] [µM]	TGI [6] [µM]	GI50 [7] [µM]	TGI [7] [µM]	GI50 [8]	TGI [8] [µM]	GI50 [9] [µM]	TGI [9] [µM]	TGI [10] [µM]	GI50 [10]
COc1ccccc1/C=N/N=C(\N)NO		> 100		> 100				> 100		12.3		> 100		> 100		> 100		90	> 100	
CC1=C(C(=O)Nc2ccc(F)c(Cl)c2)C(c2cccc(Oc3ccccc3)c2)NC(=O)N1 (stereo unspecified)	15.4	28.9			8.67	21.7	14.7	28.1	22100 nM	57	12.2	26	17.2	32.4	16 µM	31.3	15.4	29.8	28.7	15.4 µM
COc1cc([N+](=O)[O-])c(OC)cc1-c1nc2sc(Cl)cn2c1/C=N/NC(=N)N/N=C/c1c(-c2cc(OC)c([N+](=O)[O-])cc2OC)nc2sc(Cl)cn12	4.54	22.5	2.42	5.71			3.19	> 100									1.84	3.29		
CN(C)c1ccc(O)c2c1C[C@H]1C[C@H]3[C@H](N(C)C)C(=O)C(C(N)=O)=C(O)[C@@]3(O)C(=O)C1=C2O	4.02	94	7.53	> 100	16	> 100	7.52	48.4	2460 nM	7.99	3.65	79.8			5.93 µM	> 100	4.45	22.3	31.9	3.64 µM
N#CC(C#N)=C1SCC(=O)CS1		> 100		> 100		> 100				> 100		> 100				> 100		> 100	> 100	
C/C(=N\O)C(CN1CCCCC1)C(c1ccccc1)c1c(O)c2ccccc2oc1=O (stereo unspecified)				> 100		> 100		> 100		> 100				> 100		> 100		> 100	> 100	
CC1SC(=O)SC1C (stereo unspecified)		> 100		> 100		> 100		> 100		> 100		> 100				> 100		> 100		
O=C(/C=C1/NC(=O)CS1)Nc1ccccc1				> 100		> 100		> 100		> 100		> 100		> 100		> 100		> 100		
CC(=O)c1c[nH]cc1CO		> 10				> 10		> 10		> 10		> 10		> 10		> 10		> 10	> 10	
Oc1c(N=Nc2ccccc2)c2ccccc2c2ccc3ccccc3c12		> 100		> 100		> 100		> 100		> 100		> 100		> 100		> 100		> 100		
CN1CCn2c(c(Sc3ccc(C(=O)NO)cc3)c3ccccc32)C1=O	2.73	14.3	2.14	9.99	2.09	5.29	1.94	4.94			3.1	13.6	2.01	4.1	2.34 µM	9.99	1.89	3.64	3.66	1.78 µM
N#CC(NNC(=O)c1ccccc1O)c1ccccc1 (stereo unspecified)		> 100		> 100		> 100		> 100		> 100		6.03		> 100				> 100	> 100	
NC(CCSC(F)F)C(=O)O (stereo unspecified)				> 100		> 100		> 100		> 100		> 100		> 100		> 100		> 100	> 100	
COc1ccc2c(c1)CC1c3c(cc4c(c3-2)OCO4)CCN1C (stereo unspecified)		> 100		52.2		71.3		95.8		50		36.6		72.3		> 100		> 100		
Cc1cc(C)c(NS(=O)c2cccc(Cl)c2)c(C)c1 (stereo unspecified)		> 100				> 100		> 100		> 100		> 100				> 100		> 100		
O=C1CCCC1NC(=O)C(F)(F)F (stereo unspecified)				> 100		> 100		> 100		> 100		> 100		> 100		> 100		> 100		
Cc1ccc(N2C(=O)/C(=C/c3ccc(N(CCC#N)CCC#N)cc3C)N=C2c2cc([N+](=O)[O-])ccc2Cl)cc1		> 100		> 100		> 100		> 100		> 100		> 100		> 100		> 100		> 100		
Cc1ccc(S(=O)(=O)c2c3[nH]c4ccccc4nc3n3c2nc2ccccc23)cc1		> 100		> 100		> 100		> 100				> 100		> 100		> 100		> 100	> 100	
